The record followed here is PMC4416488 (Bioorganic & medicinal chemistry letters, 2015).

For one data set, the system named is tubulin. In words: Inhibition of tubulin assembly.
Data set [1] has as its system A549 human lung cancer cell line. In words: Cytotoxic activity against A549 lung cancer cell line.

Turning to `COC(=O)Nc1nc2ccc(/C=C\c3cc(OC)c(OC)c(OC)c3)cc2[nH]1` [Compound 1], in the data set with tubulin, the “Activity as tubulin polymerization/assembly inhibitor (in words)” value was “excellent activities”.

For the compound `COC(=O)Nc1nc2ccc(C(=O)c3ccc(O)cc3O)cc2[nH]1` [Compound 3], the “Activity as tubulin polymerization/assembly inhibitor (in words)” value in the data set with tubulin was “inactive”. Besides, the “Cytotoxic activity against A549 cell line (in words)” value in data set [1] is “no activity”.

Consider `COC(=O)Nc1nc2ccc(C(=O)c3ccc(OC)cc3O)cc2[nH]1` [Compound 2], for which the “Activity as tubulin polymerization/assembly inhibitor (in words)” value in the data set on tubulin is recorded as “excellent activities”. Also, in data set [1], the “Cytotoxic activity against A549 cell line (in words)” value was “no activity”.

On to `COC(=O)Nc1nc2ccc(C(=O)c3sccc3O)cc2[nH]1` [Compound 4], for which, in the data set on tubulin, the “Activity as tubulin polymerization/assembly inhibitor (in words)” value is given as “excellent activities”.
